Results on one compound are retold here after patent publication US7579331B2, “Method of improved diuresis in individuals with impaired renal function” (Novacardia, Inc., priority 2004, dated 2009).

Like-named read-outs stand apart in the source and are kept apart here.

The conditions of series [1]: reported by Ticho et al 2003; cited from earlier work.
Another series concerns urine volume. The conditions noted are these: equi-potent dose .3 mg/kg or 20 mg, Wolff et al 1998; cited from earlier work.
In series [2] the target is T1, adenosine A1 receptors (Homo sapiens, UniProt P30542).
T1 sequence (P30542 1-326): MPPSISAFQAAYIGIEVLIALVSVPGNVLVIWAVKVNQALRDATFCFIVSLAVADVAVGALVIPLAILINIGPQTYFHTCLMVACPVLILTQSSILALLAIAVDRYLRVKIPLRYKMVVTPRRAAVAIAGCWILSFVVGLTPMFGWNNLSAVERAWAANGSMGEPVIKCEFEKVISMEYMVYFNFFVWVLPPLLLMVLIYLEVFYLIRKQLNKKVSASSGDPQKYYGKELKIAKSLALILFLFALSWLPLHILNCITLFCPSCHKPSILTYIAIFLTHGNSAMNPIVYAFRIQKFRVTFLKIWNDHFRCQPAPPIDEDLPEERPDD
The conditions noted are these: BG 9719 relative to KW-3902.

Series [3] deals with T1, adenosine A1 receptors. The conditions noted are these: read-out: A1KI, cited from earlier work.

For the compound `CCCn1c(=O)c2nc([C@H]3C[C@H]4C[C@@H]3[C@@H]3O[C@H]43)[nH]c2n(CCC)c1=O` [BG 9719], the solubility result in series [1] is listed as “poor”. In addition, the stability entry in series [1] is on record as “poor”. In addition, the “% Urine volume increase over placebo, 3 hr” value with urine volume is 33%. The “greater affinity for the A1 receptor than KW-3902” value on adenosine A1 receptors [2] is 60%. Besides, the Ki at adenosine A1 receptors [3] (adenosine A1 receptor) and on adenosine A1 receptors [3] (repeated in the equi-potent dose table) was 0.45 ± 0.04 nM in each case.
